The source of these data is US7364882B1, “Enzymatic reduction of a nitrile containing compound to the corresponding amine” (State of Oregon Acting by and Through the State Board of …, priority 2004, dated 2008).

Holding throughout (format): biochemical
The subject of data set [1] is QueF. The data set can be described thus: QueF nitrile oxido-reductase assay, continuous UV monitoring of NADPH oxidation (preQ0 to preQ1). On the procedure:
PreQ0 oxido-reductase activity was determined using a number of redox cofactors, and activity was observed only in the presence of NADPH. […] […] Assays were run from 30 seconds to 2 hours.
To confirm that preQ1 was the reduced product as predicted, reaction assays were analyzed by reverse-phase HPLC (Bondclone 10 C-18, 300×3.9 mm) with a mobile phase of 20 mM ammonium actetate (pH 6.0) and methanol. With a flow-rate of 1 mL/min a series of linear gradients were developed from 20 mM ammonium acetate (pH 6.0) (buffer U) to 75% methanol in buffer U (buffer V) in the following manner (beginning time and ending time and linear increase to % V): 0-20.0 min, 0% V; 20.0-30.0 min, 8% V; 30.0-40.0 min, 20% V; 40.0-42.0 min, 100% V; 42.0-50.0 min, 100% V; and 50.0.0-52.0 min, 0% V. PreQ0 and preQ1 were detected with a diode array detector.

A short description of data set [2]: GTP cyclohydrolase activity assays (radiochemical [14C]formic acid release, fluorescence, HPLC). The note with it: three assays, large screen of conditions (cyclohydrolase I, II, III). From the text: GTP cyclohydrolase activity was investigated using three different assays (radiochemical based release of [^14C]formic acid, fluorescence, or HPLC analysis of reactions) and a large screen of assay conditions (including those for cyclohydrolase I, II, and III activity).

Data set [3] can be described thus: standard nitrile oxido-reductase assay of B. subtilis QueF mutants. To be noted: Glu98 substitution in SEQ ID NO: 2.
Description: Assays were typically carried out at 30° C. in a final volume of 80 μL in a solution of 50 mM HEPES (pH 7.5), 50 mM KCl, 1 mM DTT, 2-150 μM NADPH, 0.2-150 μM preQ0, and 10-1000 nM QueF. Assays were run from 30 seconds to 2 hours.

Where a chain is given by its changes, count along the chain named. Names and notes keep the numbering of the source. Read-outs that look alike come from different tables or passages of the source. Some results are limits rather than exact numbers.

On to `N#Cc1c[nH]c2nc(N)[nH]c(=O)c12` [preQ0, 7-cyano-7-deazaguanine], for which the Km in data set [1] (read-out: KM for preQ0) was < 1 µM. Moreover, in data set [1] (variable NADPH and constant, saturating preQ0), the kcat stood at 0.01 s⁻¹.

With `NCC1C=Nc2nc(N)[nH]c(=O)c21` (stereo not shown) [preQ1, 7-aminomethyl-7-deazaguanine], in data set [1] (reverse reaction with preQ1 and NADP+), the “preQ0 generated when the reaction was run in reverse” value was < 1%.

Turning to “reduced form of nicotinamide adenine dinucleotide phosphate [NADPH]”, the Km in data set [1] (variable NADPH and constant, saturating preQ0, read-out: KM for NADPH) turned out to be 36 µM.

B1: YqcD: E. coli QueF Class II protein, SEQ ID NO: 4 (protein)
chain: MSSYANHQALAGLTLGKSTDYRDTYDASLLQGVPRSLNRDPLGLKADNLPFHGTDIWTLYELSWLNAKGLPQVAVGHVELDYTSVNLIESKSFKLYLNSFNQTRFNNWDEVRQTLERDLSTCAQGKISVALYRLDELEGQPIGHFNGTCIDDQDITIDNYEFTTDYLENATCGEKVVEETLVSHLLKSNCLITHQPDWGSLQIQYRGRQIDREKLLRYLVSFRHHNEFHEQCVERIFNDLLRFCQPEKLSVYARYTRRGGLDINPWRSNSDFVPSTTRLVRQ
For the molecule B1, the GTP cyclohydrolase activity entry in data set [2] is on record as “no GTP cyclohydrolase activity was detected”.

B2: E98M: QueF with substitution of Glu98 in SEQ ID NO: 2 to Met (protein)
chain: MTTRKESELEGVTLLGNQGTNYLFEYAPDVLESFPNKHVNRDYFVKFNCPEFTSLCPKTGQPDFATIYISYIPDEKMVESKSLKLYLFSFRNHGDFHMDCMNIIMNDLIELMDPRYIEVWGKFTPRGGISIDPYTNYGKPGTKYEKMAEYRMMNHDLYPETIDNR
As to B2, in data set [3], the “ability to reduce PreQ0” value is “significantly decreased”.

B3: YkvM: B. subtilis QueF Class I protein, SEQ ID NO: 2 (protein)
chain: B2 chain with M98E
Take B3: in data set [2], the GTP cyclohydrolase activity result was “no GTP cyclohydrolase activity was detected”.

By Km is commonly meant the concentration of substrate that gives half-maximal velocity. One may read the kcat as the maximal rate divided by the concentration of active sites.
